For one assay, the target named is T1, 5-HT1A (Homo sapiens, UniProt P08908).
T1 sequence (P08908 1-422): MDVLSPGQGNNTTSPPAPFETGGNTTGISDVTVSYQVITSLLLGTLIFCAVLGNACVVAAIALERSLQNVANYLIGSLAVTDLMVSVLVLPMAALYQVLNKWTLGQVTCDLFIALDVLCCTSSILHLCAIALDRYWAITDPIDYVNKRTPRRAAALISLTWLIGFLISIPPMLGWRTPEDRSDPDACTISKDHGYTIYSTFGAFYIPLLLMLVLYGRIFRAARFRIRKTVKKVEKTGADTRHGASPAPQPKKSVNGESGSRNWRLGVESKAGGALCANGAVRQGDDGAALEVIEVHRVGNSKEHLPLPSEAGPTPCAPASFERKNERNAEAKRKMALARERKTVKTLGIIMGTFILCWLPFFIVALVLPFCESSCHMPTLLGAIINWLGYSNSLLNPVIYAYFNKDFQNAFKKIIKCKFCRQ
Put plainly: Off-target activity at 5-HT1A. Type of assay: binding. The note with it: off-target site; read-out: 5-HT1A inhibition constant Ki.

The next assay concerns the target T2, adrenergic α1B receptor (Homo sapiens, UniProt P35368).
T2 sequence (P35368 1-520): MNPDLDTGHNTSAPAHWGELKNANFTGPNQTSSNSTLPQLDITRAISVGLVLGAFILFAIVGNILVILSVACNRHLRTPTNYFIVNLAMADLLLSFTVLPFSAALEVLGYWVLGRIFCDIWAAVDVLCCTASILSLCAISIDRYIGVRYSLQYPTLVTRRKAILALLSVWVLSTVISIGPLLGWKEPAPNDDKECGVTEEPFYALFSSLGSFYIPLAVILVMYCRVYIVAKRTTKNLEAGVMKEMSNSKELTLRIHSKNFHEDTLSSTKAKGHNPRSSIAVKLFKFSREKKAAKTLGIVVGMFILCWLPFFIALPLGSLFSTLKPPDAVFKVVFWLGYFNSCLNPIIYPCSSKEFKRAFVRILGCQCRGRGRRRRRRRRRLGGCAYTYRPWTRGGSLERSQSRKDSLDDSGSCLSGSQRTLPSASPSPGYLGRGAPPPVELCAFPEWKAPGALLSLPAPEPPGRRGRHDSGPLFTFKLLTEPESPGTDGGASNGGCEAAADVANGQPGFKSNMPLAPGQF
Put plainly: Off-target activity at adrenergic α1B receptor. Type of assay: binding. The note with it: off-target site.

Another assay has as its target T3, adrenergic α1D receptor (Homo sapiens, UniProt P25100).
T3 sequence (P25100 1-572): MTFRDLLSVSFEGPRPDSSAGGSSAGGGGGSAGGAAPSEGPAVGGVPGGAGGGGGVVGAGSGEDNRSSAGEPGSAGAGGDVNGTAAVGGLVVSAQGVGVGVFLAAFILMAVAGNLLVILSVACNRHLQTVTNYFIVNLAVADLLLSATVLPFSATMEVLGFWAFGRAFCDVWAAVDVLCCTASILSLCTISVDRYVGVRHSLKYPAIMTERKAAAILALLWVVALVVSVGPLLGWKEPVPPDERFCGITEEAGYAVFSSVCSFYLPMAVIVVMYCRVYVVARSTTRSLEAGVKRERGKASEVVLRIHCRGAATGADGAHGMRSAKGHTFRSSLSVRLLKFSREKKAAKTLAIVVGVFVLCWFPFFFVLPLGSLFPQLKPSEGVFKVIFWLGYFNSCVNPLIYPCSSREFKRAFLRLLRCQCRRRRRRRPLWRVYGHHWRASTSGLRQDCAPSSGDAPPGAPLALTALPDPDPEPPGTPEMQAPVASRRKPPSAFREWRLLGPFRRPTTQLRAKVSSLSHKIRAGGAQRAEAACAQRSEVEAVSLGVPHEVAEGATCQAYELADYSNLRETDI
Put plainly: Off-target activity at adrenergic α1D receptor. The note with it: off-target site. It counts as binding.

The next assay deals with NET (Homo sapiens, UniProt P23975). Put plainly: Competition binding, membranes from HEK cells overexpressing NET. More on the design: expressed in transfected cells; host or cells: HEK cells (membranes). The note with it: radioligand at Kd concentration; HEK cell membranes. Here is the method: (§1) Competition binding experiments were performed to determine the in vitro binding potencies (IC50 values) of Compound 1-(4S) for SERT, DAT, and NET. Membranes prepared from human embryonic kidney (HEK) cells overexpressing each transporter were employed. Radioligands were used at their respective affinity constant (Kd) concentrations for each transporter to enable direct comparisons of the IC50 values between assays.
Sequence of NET (P23975 whole entry): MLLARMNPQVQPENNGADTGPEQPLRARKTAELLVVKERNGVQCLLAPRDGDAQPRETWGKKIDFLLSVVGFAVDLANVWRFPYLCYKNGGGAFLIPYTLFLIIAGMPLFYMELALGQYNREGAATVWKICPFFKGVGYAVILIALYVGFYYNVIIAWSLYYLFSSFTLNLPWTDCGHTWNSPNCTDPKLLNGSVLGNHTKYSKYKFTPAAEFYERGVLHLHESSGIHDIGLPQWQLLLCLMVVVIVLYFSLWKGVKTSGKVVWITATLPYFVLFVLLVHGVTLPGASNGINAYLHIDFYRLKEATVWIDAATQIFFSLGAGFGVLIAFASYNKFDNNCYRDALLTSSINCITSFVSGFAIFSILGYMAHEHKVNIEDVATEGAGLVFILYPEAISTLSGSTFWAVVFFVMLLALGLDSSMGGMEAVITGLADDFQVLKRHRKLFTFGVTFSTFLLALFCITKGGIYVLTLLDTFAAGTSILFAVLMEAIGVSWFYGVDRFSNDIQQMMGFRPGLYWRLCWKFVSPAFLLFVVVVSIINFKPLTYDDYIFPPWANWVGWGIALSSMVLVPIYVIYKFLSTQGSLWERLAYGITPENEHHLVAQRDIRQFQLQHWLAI

In a further assay the target is DAT (Homo sapiens, UniProt Q01959). The experiment in a line: Competition binding, membranes from HEK cells overexpressing DAT. The note with it: radioligand at Kd concentration; HEK cell membranes. More on the design: expressed in transfected cells; host or cells: HEK cells (membranes). The protocol: as §1
Sequence of DAT (Q01959 whole entry): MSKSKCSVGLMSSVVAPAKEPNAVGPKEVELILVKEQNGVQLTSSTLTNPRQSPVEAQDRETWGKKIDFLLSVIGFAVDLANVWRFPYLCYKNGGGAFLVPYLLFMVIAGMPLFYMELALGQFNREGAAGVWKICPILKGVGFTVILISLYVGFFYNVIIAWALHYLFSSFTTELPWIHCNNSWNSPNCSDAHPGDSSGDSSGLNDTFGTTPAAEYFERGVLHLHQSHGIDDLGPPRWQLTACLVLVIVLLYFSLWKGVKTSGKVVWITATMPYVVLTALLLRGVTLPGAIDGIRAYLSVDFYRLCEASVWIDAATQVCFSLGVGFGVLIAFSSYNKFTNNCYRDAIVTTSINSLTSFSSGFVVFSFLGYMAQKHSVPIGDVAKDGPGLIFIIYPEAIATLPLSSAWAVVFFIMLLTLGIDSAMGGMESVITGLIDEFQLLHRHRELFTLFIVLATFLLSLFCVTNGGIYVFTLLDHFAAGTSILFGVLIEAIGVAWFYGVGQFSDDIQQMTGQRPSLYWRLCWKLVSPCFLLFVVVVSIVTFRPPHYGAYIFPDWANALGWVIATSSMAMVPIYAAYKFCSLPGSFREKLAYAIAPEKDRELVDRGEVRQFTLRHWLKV
The target in the next assay is SERT (Homo sapiens, UniProt P31645). Put plainly: Competition binding, membranes from HEK cells overexpressing SERT. More on the design: expressed in transfected cells; host or cells: HEK cells (membranes). The note with it: radioligand at Kd concentration; HEK cell membranes; read-out: SERT binding IC50. Here is the method:
as §1

The next assay concerns the target T4, adrenergic α1A receptor (Homo sapiens, UniProt P35348).
T4 sequence (P35348 1-466): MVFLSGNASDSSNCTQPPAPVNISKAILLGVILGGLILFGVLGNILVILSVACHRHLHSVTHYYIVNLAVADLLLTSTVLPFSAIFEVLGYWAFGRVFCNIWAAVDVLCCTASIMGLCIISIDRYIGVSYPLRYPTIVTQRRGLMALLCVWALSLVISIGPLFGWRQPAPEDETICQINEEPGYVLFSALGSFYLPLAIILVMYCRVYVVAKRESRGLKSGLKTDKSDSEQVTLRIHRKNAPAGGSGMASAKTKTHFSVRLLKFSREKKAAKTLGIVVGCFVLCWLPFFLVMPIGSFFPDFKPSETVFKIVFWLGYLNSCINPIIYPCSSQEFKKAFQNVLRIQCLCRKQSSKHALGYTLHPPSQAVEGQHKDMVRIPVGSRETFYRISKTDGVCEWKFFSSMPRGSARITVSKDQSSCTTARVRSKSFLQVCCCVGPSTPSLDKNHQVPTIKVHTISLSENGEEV
The experiment in a line: Off-target activity at adrenergic α1A receptor. Type of assay: binding. The note with it: off-target site.

Sequence of SERT (P31645 whole entry): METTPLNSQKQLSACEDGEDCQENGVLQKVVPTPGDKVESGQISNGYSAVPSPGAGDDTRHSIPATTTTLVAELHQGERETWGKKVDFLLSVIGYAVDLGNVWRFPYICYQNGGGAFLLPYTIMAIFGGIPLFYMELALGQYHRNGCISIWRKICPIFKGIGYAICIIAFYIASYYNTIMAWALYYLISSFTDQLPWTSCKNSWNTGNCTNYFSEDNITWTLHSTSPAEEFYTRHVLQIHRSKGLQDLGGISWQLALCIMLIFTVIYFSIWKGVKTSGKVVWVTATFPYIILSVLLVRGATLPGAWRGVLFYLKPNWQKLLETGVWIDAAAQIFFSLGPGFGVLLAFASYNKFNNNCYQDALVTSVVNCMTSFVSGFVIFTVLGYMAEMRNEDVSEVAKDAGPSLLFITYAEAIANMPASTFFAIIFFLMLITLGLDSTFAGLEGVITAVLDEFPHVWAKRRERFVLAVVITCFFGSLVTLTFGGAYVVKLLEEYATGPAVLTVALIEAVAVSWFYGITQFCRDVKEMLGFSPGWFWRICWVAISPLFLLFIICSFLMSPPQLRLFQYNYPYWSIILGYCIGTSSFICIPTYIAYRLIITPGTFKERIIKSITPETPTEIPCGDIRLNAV

A word on the Ki: it is a dissociation constant, usually derived from enzyme kinetics or from competition with a known ligand. As usually defined, the IC50 is the midpoint of a concentration-inhibition curve. As to `Nc1ccc(-c2ccc3c(c2)CNC[C@H]3c2ccc3ccccc3c2)nn1` [Compound 31], the Ki turned out to be 0.099 µM on 5-HT1A, 0.26 µM at adrenergic α1B receptor, 0.48 µM on adrenergic α1D receptor and 0.41 µM at adrenergic α1A receptor. Also, the IC50 is 0.0267 ± 0.003 µM on NET, 0.00619 ± 0.001 µM on DAT and 0.00021 ± 4e-05 µM at SERT.
